Residues, ends and D or L forms follow the SMILES beside them.
How the values were obtained:
human serum albumin = test: Prevention of albumin carbamylation by cyanate in the presence of competing nucleophiles (% C-Alb by LC-MS); conditions: 10 mM scavenger, 0.25 mM cyanate, 37° C., 14 hours; for % CarbAlb Average +/− SD / % Decrease compared to no inhibitor: human serum albumin 4 mg/ml
Experimental: The pH of each was adjusted to pH 7.4 using HCl. HSA (4 mg/mL) was added to each amino acid solution, and then mixed 1:1 with 0.5 mM potassium cyanate in 100 mM potassium phosphate pH 7.4 (0.25 mM cyanate final concentration). […] Desalted albumin was then denatured and digested for analysis as described above.
To this, we added 0.25 mM cyanate, incubated at 37° C. for 14 hours, and analyzed for % C-Alb thereafter (Table 11).

[1] = Cyanate titration of an equimolar amino acid mixture (susceptibility of amino acids to carbamylation); conditions: increasing cyanate, physiological buffer pH 7.4, overnight 37° C.
Experimental: Carbamylation titration experiments were performed using an amino acid standard mix from Sigma Aldrich (Cat. No. AAS18) supplemented with tryptophan, cysteine, and glutamine; all amino acids were equimolar (2.5 mM stock). The 0.1 N HCl in the standard solution was neutralized with ammonium hydroxide and removed by lyophilization, and the dried amino acids were diluted to final concentration of 50 μM (each) in 100 mM potassium phosphate pH 7.4. […] Carbamylation was halted with addition of 1 M HCl, and excess cyanate and HCl were removed by vacuum lyophilization at room temperature. Isotopic standards were then mixed with the reactions, the tube were re-lyophilized, and amino acid mixtures were then S-alkylated with iodoacetamide, butylated with butanolic HCl, and analyzed using methods similar to those described for serum amino acids.
To differentiate the isocyanate-scavenging ability of individual amino acids, we added increasing concentrations of cyanate to an equimolar mixture of all twenty amino acids in a physiological buffer. As expected, increasing concentration of cyanate produced linear increases of all carbamylated amino acids and depletion of their unmodified forms (FIGS. 9A and 9B). From the titration curves, we calculated the cyanate concentration at which 10% unmodified amino acid forms were depleted.

SMILES: C[C@H](N)C(=O)O [Alanine]
- % CarbAlb Average +/− SD (human serum albumin): 32 ± 1.7%

SMILES: N=C(N)NCCC[C@H](N)C(=O)O [Arginine]
- Susceptibility to carbamylation / cyanate binding (in words) [1]: prone to carbamylation at low cyanate concentrations
- % CarbAlb Average +/− SD (human serum albumin): 27 ± 1.6%

SMILES: N[C@@H](CS)C(=O)O [Cysteine]
- Susceptibility to carbamylation / cyanate binding (in words) [1]: very high cyanate binding avidity by the free thiol group
- Prevention of C-Alb formation / cyanate scavenging (in words) (human serum albumin): prevented C-Alb formation
- % CarbAlb Average +/− SD (human serum albumin): 23 ± 1.9%

SMILES: N[C@@H](CCC(=O)O)C(=O)O [Glutamate]
- % CarbAlb Average +/− SD (human serum albumin): 38 ± 1.2%
- % Decrease compared to no inhibitor (human serum albumin): 3%

SMILES: NC(=O)CC[C@H](N)C(=O)O [Glutamine]
- % CarbAlb Average +/− SD (human serum albumin): 32 ± 2.9%

SMILES: N[C@@H](CCC(=O)N[C@@H](CS)C(=O)NCC(=O)O)C(=O)O [Glutathione]
- % CarbAlb Average +/− SD (human serum albumin): 29 ± 1.4%

SMILES: NCC(=O)O [Glycine]
- % CarbAlb Average +/− SD (human serum albumin): 31 ± 1.8%

SMILES: NCC(=O)NCC(=O)O [Glycylglycine] (H-Gly-Gly-OH)
- Susceptibility to carbamylation / cyanate binding (in words) [1]: more strongly carbamylated than glycine or other amino acids

SMILES: N[C@@H](Cc1c[nH]cn1)C(=O)O [Histidine]
- Susceptibility to carbamylation / cyanate binding (in words) [1]: prone to carbamylation at low cyanate concentrations
- % CarbAlb Average +/− SD (human serum albumin): 26 ± 1.0%

SMILES: CC(C)C[C@H](N)C(=O)O [Leucine]
- % CarbAlb Average +/− SD (human serum albumin): 37 ± 2.2%

SMILES: NCCCC[C@H](N)C(=O)O [Lysine]
- Susceptibility to carbamylation / cyanate binding (in words) [1]: did not avidly bind cyanate
- % CarbAlb Average +/− SD (human serum albumin): 31 ± 0.9%
- % Decrease compared to no inhibitor (human serum albumin): 21%

SMILES: O=C(O)[C@@H]1CCCN1 [Proline]
- % CarbAlb Average +/− SD (human serum albumin): 34 ± 1.6%

SMILES: NCCS(=O)(=O)O [Taurine]
- Prevention of C-Alb formation / cyanate scavenging (in words) (human serum albumin): effectively scavenged cyanate
- % CarbAlb Average +/− SD (human serum albumin): 22 ± 1.7%

SMILES: N[C@@H](Cc1c[nH]c2ccccc12)C(=O)O [Tryptophan]
- % CarbAlb Average +/− SD (human serum albumin): 32 ± 2.7%

SMILES: CC(C)[C@H](N)C(=O)O [Valine]
- % CarbAlb Average +/− SD (human serum albumin): 33 ± 1.1%
- % Decrease compared to no inhibitor (human serum albumin): 16%

Source: patent publication US9549964B2, “Diagnosis, prognosis, and treatment of kidney disease” (Beth Israel Deaconess Medical Center, Inc., priority 2011, dated 2017)
